Measurements taken from US11427558B1, “Indazoles and azaindazoles as LRRK2 inhibitors” (ESCAPE Bio, Inc., priority 2019, dated 2022).

Key:
[1] = target: Recombinant wild type LRRK2 protein (Homo sapiens (Human), UniProt Q5S007); assay: LRRK2 kinase activity, LanthaScreen TR-FRET assay (wild type); format: biochemical; details: LRRKtide 400 nM, 25 μM ATP, 60 min; read-out: LRRK2 WT IC50
How it was run: (§1)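 Recombinant human wild-type or G2019S LRRK2 phosphorylated fluorescein-labelled LRRKtide (ERM-based) with ATP and serially diluted compound for 60 min at room temperature.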

[2] = target: Recombinant G2019S-LRRK2 protein (Homo sapiens (Human), UniProt Q5S007, G2019S); assay: LRRK2 kinase activity, LanthaScreen TR-FRET assay (G2019S); format: biochemical; details: LRRKtide 400 nM, 25 μM ATP, 60 min
Sequence of Recombinant G2019S-LRRK2 protein (Q5S007 whole entry G2019S): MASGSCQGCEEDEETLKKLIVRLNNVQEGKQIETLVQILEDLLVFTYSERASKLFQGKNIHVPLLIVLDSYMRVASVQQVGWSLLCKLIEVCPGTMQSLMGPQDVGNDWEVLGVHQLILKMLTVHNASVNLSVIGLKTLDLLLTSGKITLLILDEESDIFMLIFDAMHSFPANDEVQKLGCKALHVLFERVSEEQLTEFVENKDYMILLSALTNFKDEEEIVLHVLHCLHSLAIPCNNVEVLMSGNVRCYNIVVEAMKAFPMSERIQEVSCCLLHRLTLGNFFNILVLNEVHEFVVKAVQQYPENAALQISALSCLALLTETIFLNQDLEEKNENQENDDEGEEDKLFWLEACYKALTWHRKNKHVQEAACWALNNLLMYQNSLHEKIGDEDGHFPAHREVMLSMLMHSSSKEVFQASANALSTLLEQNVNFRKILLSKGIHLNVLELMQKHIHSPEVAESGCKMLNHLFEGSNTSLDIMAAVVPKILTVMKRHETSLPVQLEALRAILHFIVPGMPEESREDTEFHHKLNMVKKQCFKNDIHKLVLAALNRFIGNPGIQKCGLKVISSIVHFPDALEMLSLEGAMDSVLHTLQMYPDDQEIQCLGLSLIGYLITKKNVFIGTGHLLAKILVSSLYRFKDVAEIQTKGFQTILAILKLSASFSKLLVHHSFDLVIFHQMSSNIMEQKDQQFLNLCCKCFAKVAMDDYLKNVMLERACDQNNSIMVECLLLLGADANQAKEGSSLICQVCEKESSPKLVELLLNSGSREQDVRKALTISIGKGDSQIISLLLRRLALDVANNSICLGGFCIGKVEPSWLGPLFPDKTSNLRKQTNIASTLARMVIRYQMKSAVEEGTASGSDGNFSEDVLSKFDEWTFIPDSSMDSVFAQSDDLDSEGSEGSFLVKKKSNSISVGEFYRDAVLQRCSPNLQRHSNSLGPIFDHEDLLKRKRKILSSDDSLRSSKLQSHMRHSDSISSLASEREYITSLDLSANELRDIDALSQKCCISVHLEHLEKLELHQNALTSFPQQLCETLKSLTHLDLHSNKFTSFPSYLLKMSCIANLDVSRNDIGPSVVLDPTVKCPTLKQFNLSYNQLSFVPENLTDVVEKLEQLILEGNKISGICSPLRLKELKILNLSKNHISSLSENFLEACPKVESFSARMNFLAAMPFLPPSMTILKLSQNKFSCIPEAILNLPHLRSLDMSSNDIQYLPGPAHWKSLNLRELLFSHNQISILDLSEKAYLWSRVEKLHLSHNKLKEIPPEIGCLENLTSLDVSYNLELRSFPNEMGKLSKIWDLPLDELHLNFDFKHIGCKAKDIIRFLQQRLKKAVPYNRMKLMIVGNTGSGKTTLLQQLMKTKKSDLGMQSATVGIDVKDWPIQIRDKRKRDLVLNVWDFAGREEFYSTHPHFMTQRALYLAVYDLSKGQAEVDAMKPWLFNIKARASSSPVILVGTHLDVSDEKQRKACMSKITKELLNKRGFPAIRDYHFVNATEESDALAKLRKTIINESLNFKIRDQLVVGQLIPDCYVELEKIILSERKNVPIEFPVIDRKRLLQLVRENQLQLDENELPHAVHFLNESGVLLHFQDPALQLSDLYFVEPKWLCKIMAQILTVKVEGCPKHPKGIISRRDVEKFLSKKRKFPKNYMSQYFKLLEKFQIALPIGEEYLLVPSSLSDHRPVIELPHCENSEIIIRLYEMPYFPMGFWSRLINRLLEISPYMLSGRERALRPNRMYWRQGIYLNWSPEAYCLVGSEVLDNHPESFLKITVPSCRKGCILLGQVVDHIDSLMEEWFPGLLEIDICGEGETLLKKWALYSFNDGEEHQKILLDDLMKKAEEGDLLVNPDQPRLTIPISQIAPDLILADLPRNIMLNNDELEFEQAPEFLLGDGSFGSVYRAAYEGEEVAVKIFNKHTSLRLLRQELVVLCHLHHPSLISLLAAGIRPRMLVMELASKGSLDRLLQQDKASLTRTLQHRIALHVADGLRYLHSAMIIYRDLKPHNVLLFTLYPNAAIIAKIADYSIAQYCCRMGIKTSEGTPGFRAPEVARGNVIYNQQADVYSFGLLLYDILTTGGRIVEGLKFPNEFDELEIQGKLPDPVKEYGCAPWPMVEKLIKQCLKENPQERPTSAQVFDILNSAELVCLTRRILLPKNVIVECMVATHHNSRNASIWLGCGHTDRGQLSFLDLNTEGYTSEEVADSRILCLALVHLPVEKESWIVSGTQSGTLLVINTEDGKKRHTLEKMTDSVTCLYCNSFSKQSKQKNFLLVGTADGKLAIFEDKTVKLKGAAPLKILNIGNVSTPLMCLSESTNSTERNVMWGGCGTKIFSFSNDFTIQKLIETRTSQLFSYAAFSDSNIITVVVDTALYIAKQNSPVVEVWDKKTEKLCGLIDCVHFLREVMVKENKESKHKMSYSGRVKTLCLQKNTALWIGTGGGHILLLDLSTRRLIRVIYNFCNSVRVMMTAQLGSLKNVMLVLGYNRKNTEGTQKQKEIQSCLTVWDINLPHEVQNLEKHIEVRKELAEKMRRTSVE
How it was run: as §1

Sequence of Recombinant wild type LRRK2 protein (Q5S007 whole entry): as the sequence (Q5S007 whole entry G2019S) above, with S2019G counted along it

SMILES | IC50 [1] [nM] | IC50 [2] [nM]
Cc1c(C(=O)Nc2ccc3[nH]nc(-c4cnn(C(F)F)c4)c3c2)nc(Cl)c(C#N)c1C [Example 175, 6-Chloro-5-cyano-N-(3-(1-(difluoromethyl)-1H-pyrazol-4-yl)-1H-indazol-5-yl)-3,4-dimethylpicolinamide] | < 100 | < 100
COc1c(C#N)cccc1C(=O)Nc1ccc2[nH]nc(-c3cnco3)c2c1 [Example 176, 3-Cyano-2-methoxy-N-(3-(oxazol-5-yl)-1H-indazol-5-yl)benzamide] | < 100 | < 100
Cc1ccc(C#N)c(F)c1C(=O)Nc1ccc2[nH]nc(-c3cnn(C(F)F)c3)c2c1 [Example 177, 3-Cyano-N-(3-(1-(difluoromethyl)-1H-pyrazol-4-yl)-1H-indazol-5-yl)-2-fluoro-6-methylbenzamide] | < 100 | < 100
COc1cc(-c2n[nH]c3ccc(NC(=O)c4ncc(C#N)cc4C(F)(F)F)cc23)ccn1 [Example 178, 5-Cyano-N-(3-(2-methoxypyridin-4-yl)-1H-indazol-5-yl)-3-(trifluoromethyl)picolinamide] | < 100 | < 100
Cc1c(C(=O)Nc2ccc3[nH]nc(-c4ccoc4)c3c2)noc1C#N [Example 179, 5-Cyano-N-(3-(furan-3-yl)-1H-indazol-5-yl)-4-methylisoxazole-3-carboxamide] | < 100 | < 100
Cc1c(C#N)noc1C(=O)Nc1ccc2[nH]nc(-c3ccoc3)c2c1 [Example 180, 3-Cyano-N-(3-(furan-3-yl)-1H-indazol-5-yl)-4-methylisoxazole-5-carboxamide] | 100 to 1000 | 100 to 1000
Cc1c(C#N)cnc(C(=O)Nc2ccc3[nH]nc(-c4cnc(C(C)C)o4)c3c2)c1C [Example 181, 5-Cyano-N-(3-(2-isopropyloxazol-5-yl)-1H-indazol-5-yl)-3,4-dimethylpicolinamide] | < 100 | < 100
Cc1cccc(-c2n[nH]c3ccc(NC(=O)c4ncc(C#N)c(C)c4C)cc23)n1 [Example 182, 5-Cyano-3,4-dimethyl-N-(3-(6-methylpyridin-2-yl)-1H-indazol-5-yl)picolinamide] | 100 to 1000 | < 100
Cc1c(C#N)cnc(C(=O)Nc2ccc3[nH]nc(-c4cn[nH]c4)c3c2)c1C [Example 183, N-(3-(1H-Pyrazol-4-yl)-1H-indazol-5-yl)-5-cyano-3,4-dimethylpicolinamide] | < 100 | < 100
Cc1c(C(=O)Nc2ccc3[nH]nc(-c4cnco4)c3c2)nc(Cl)c(C#N)c1C [Example 184, 6-Chloro-5-cyano-3,4-dimethyl-N-(3-(oxazol-5-yl)-1H-indazol-5-yl)picolinamide] | < 100 | < 100
Cc1nc(C(=O)Nc2ccc3[nH]nc(-c4cnn(C(F)F)c4)c3c2)c(C)c(C)c1C#N [Example 185, 5-Cyano-N-(3-(1-(difluoromethyl)-1H-pyrazol-4-yl)-1H-indazol-5-yl)-3,4,6-trimethylpicolinamide] | < 100 | < 100
Cc1c(C#N)cnc(C(=O)Nc2ccc3[nH]nc(-c4ccn(C)c4)c3c2)c1C [Example 186, 5-cyano-3,4-dimethyl-N-(3-(1-methyl-1H-pyrrol-3-yl)-1H-indazol-5-yl)picolinamide] | < 100 | < 100
Cc1c(C#N)cnc(C(=O)Nc2ccc3[nH]nc(-c4cnn(C)c4)c3c2)c1C [Example 187, 5-Cyano-3,4-dimethyl-N-(3-(1-methyl-1H-pyrazol-4-yl)-1H-indazol-5-yl)picolinamide] | < 100 | < 100
N#Cc1ccc(F)c(C(=O)Nc2ccc3[nH]nc(-c4cnco4)c3c2)c1F [Example 188, 3-Cyano-2,6-difluoro-N-(3-(oxazol-5-yl)-1H-indazol-5-yl)benzamide] | < 100 | < 100
COc1cc(C#N)ccc1C(=O)Nc1ccc2[nH]nc(-c3cnn(C(F)F)c3)c2c1 [Example 189, 4-Cyano-N-(3-(1-(difluoromethyl)-1H-pyrazol-4-yl)-1H-indazol-5-yl)-2-methoxybenzamide] | < 100 | < 100
Cc1cc(C#N)cc(F)c1C(=O)Nc1ccc2[nH]nc(-c3cnco3)c2c1 [Example 190, 4-Cyano-2-fluoro-6-methyl-N-(3-(oxazol-5-yl)-1H-indazol-5-yl)benzamide] | < 100 | < 100
Cc1cc(-c2n[nH]c3ccc(NC(=O)c4ncc(C#N)c(C)c4C)cc23)cc(C)n1 [Example 191, 5-Cyano-N-(3-(2,6-dimethylpyridin-4-yl)-1H-indazol-5-yl)-3,4-dimethylpicolinamide] | < 100 | < 100
N#Cc1cccc(C(=O)Nc2ccc3[nH]nc(-c4cnn(C(F)F)c4)c3c2)c1C(F)(F)F [Example 192, 3-Cyano-N-(3-(1-(difluoromethyl)-1H-pyrazol-4-yl)-1H-indazol-5-yl)-2-(trifluoromethyl)benzamide] | < 100 | < 100

SMILES | IC50 [1] [nM] | IC50 [2] [nM]
Cc1ccc(C#N)c(C)c1C(=O)Nc1ccc2[nH]nc(-c3cnn(C(F)F)c3)c2c1 [Example 193, 3-Cyano-N-(3-(1-(difluoromethyl)-1H-pyrazol-4-yl)-1H-indazol-5-yl)-2,6-dimethylbenzamide] | < 100 | < 100
COc1cc(-c2n[nH]c3ccc(NC(=O)c4c(C)c(C#N)nn4C)cc23)ccn1 [Example 194, 3-Cyano-N-(3-(2-methoxypyridin-4-yl)-1H-indazol-5-yl)-1,4-dimethyl-1H-pyrazole-5-carboxamide] | 100 to 1000 | < 100
Cc1c(C#N)nn(C)c1C(=O)Nc1ccc2[nH]nc(-c3cnn(C(F)F)c3)c2c1 [Example 195, 3-Cyano-N-(3-(1-(difluoromethyl)-1H-pyrazol-4-yl)-1H-indazol-5-yl)-1,4-dimethyl-1H-pyrazole-5-carboxamide] | < 100 | < 100
Cc1c(C#N)nn(C)c1C(=O)Nc1ccc2[nH]nc(-c3cnoc3)c2c1 [Example 196, 3-Cyano-N-(3-(isoxazol-4-yl)-1H-indazol-5-yl)-1,4-dimethyl-1H-pyrazole-5-carboxamide] | 100 to 1000 | < 100
Cc1coc(-c2n[nH]c3ccc(NC(=O)c4ncc(C#N)c(C)c4C)cc23)n1 [Example 197, 5-Cyano-3,4-dimethyl-N-(3-(4-methyloxazol-2-yl)-1H-indazol-5-yl)picolinamide] | 100 to 1000 | < 100
Cc1c(C#N)cnc(C(=O)Nc2ccc3[nH]nc(-c4ncco4)c3c2)c1C [Example 198, 5-Cyano-3,4-dimethyl-N-(3-(oxazol-2-yl)-1H-indazol-5-yl)picolinamide] | 100 to 1000 | < 100
N#Cc1cccc(C(=O)Nc2ccc3[nH]nc(-c4cnco4)c3c2)c1F [Example 199, 3-Cyano-2-fluoro-N-(3-(oxazol-5-yl)-1H-indazol-5-yl)benzamide] | < 100 | < 100
COc1cc(C#N)ccc1C(=O)Nc1ccc2[nH]nc(-c3cnco3)c2c1 [Example 200, 4-Cyano-2-methoxy-N-(3-(oxazol-5-yl)-1H-indazol-5-yl)benzamide] | < 100 | < 100
COc1cc(C#N)cc(C)c1C(=O)Nc1ccc2[nH]nc(-c3cnn(C(F)F)c3)c2c1 [Example 201, 4-Cyano-N-(3-(1-(difluoromethyl)-1H-pyrazol-4-yl)-1H-indazol-5-yl)-2-methoxy-6-methylbenzamide] | < 100 | < 100
Cc1nc(C(=O)Nc2ccc3[nH]nc(-c4cnco4)c3c2)c(C)c(C)c1C#N [Example 202, 5-Cyano-3,4,6-trimethyl-N-(3-(oxazol-5-yl)-1H-indazol-5-yl)picolinamide] | < 100 | < 100
Cc1ccc(C#N)c(F)c1C(=O)Nc1ccc2[nH]nc(-c3cnco3)c2c1 [Example 203, 3-Cyano-2-fluoro-6-methyl-N-(3-(oxazol-5-yl)-1H-indazol-5-yl)benzamide] | < 100 | < 100
Cc1c(C#N)cnc(C(=O)Nc2ccc3[nH]nc(-c4ccn(C(F)F)n4)c3c2)c1C [Example 204, 5-Cyano-N-(3-(1-(difluoromethyl)-1H-pyrazol-3-yl)-1H-indazol-5-yl)-3,4-dimethylpicolinamide] | 100 to 1000 | < 100
CCOc1cc(-c2n[nH]c3ccc(NC(=O)c4ncc(C#N)c(C)c4C)cc23)ccn1 [Example 205, 5-Cyano-N-(3-(2-ethoxypyridin-4-yl)-1H-indazol-5-yl)-3,4-dimethylpicolinamide] | < 100 | < 100
N#Cc1cnc(C(=O)Nc2ccc3[nH]nc(-c4cnco4)c3c2)c2c1CCC2 [Example 206, 4-Cyano-N-(3-(oxazol-5-yl)-1H-indazol-5-yl)-6,7-dihydro-5H-cyclopenta[c]pyridine-1-carboxamide] | 1000 to 10000 | < 100
Cc1cnc(-c2n[nH]c3ccc(NC(=O)c4ncc(C#N)c(C)c4C)cc23)o1 [Example 207, 5-Cyano-3,4-dimethyl-N-(3-(5-methyloxazol-2-yl)-1H-indazol-5-yl)picolinamide] | < 100 | < 100
COc1cc(C#N)cc(C)c1C(=O)Nc1ccc2[nH]nc(-c3cnco3)c2c1 [Example 208, 4-Cyano-2-methoxy-6-methyl-N-(3-(oxazol-5-yl)-1H-indazol-5-yl)benzamide] | < 100 | < 100
N#Cc1cccc(C(=O)Nc2ccc3[nH]nc(-c4cnco4)c3c2)c1Cl [Example 209, 2-chloro-3-cyano-N-(3-(oxazol-5-yl)-1H-indazol-5-yl)benzamide] | < 100 | < 100
Cc1nc(C(=O)Nc2ccc3[nH]nc(-c4cnoc4)c3c2)c(C)c(C)c1C#N [Example 210, 5-Cyano-N-(3-(isoxazol-4-yl)-1H-indazol-5-yl)-3,4,6-trimethylpicolinamide] | < 100 | < 100
